{
  "source": "patent US20200000704A1",
  "about": "“DEGRADATION INHIBITOR OF HYALURONIC ACID, COMPRISING ROSEMARY EXTRACT AND RETINOL ACETATE” (Shiseido Company, Ltd., priority 2012, published 2020)",
  "tested_on": "hyaluronidase",
  "experiment": "Examination for inhibiting hyaluronic acid degradation (hyaluronidase inhibition, p-DMAB colour reaction, OD 585 nm)",
  "format": "biochemical",
  "conditions": "final concentration: rosemary extract BG 0.000165 w/w % at dry weight, retinol acetate 0.0000516 w/w %; substrate sodium hyaluronate; absorbance OD 585 nm with control (water) adjusted to 100; FIG. 1",
  "procedure": "50 μl hyaluronidase solution (1 mg/ml) (Sigma Aldrich Japan K.K.) was placed into a microtube, and 50 μl of an evaluation drug was added, and then the mixture was incubated for 10 min at 37° C. Rosemary extract BG (Maruzen Pharmaceuticals, Co., Ltd.), retinol acetate (BASF Japan Ltd.), and rosemary extract and retinol acetate were used as the evaluation drug, and water was used as a control instead of the evaluation agent. Rosemary extract BG was added so that the final concentration thereof after addition of hyaluronic acid sodium aqueous solution was 0.000165 w/w % at dry weight. Retinol acetate was added so that the final concentration thereof after addition of hyaluronic acid sodium aqueous solution was 0.0000516 w/w %. After incubation, 400 μl of 1 mg/ml sodium hyaluronate (Shiseido Co., Ltd., MW 1,100,000-1,600,000) was added to the solution, and then incubated at 37° C., for 10 min, and then 50 μl of sodium hydroxide (0.2 M) was added to stop the reaction. This solution was boiled for 3 min, then cooled with flowing water. 300 μl of 10% p-DMAB (dimethylaminobenzaldehyde) solution (NACALAI TESQUE, Inc.) was added to the solution, and then incubated for 37° C. for 20 min. After bringing it back to room temperature, 100 μl of each solution was poured into each well of 96 well-plate, and OD 585 nm was determined by using […] Pharma Biomedical Co., Ltd.).",
  "note": "Entries after “also recorded” stand apart in the source; their conditions may differ.",
  "data": [
    {"substance": "retinol acetate", "values": [
      {"measurement": "hyaluronidase inhibitory activity", "value": "does not have a hyaluronidase activity; also recorded: did not have a hyaluronidase inhibitory activity"}
    ]}
  ]
}
